Where two headings read alike, the source gives them in different places. Marks after values point to notes of the source that are not given here. Ends that are not written are not given here.
Experiments:
[1] = system: osteoblastic cells derived from murine calvaria; experiment: Apoptosis of osteoblastic cells derived from murine calvaria by trypan blue uptake; type: cell-based; settings: 6 h; for induction of apoptosis of osteoblastic cells: etoposide 50 μg/ml, TNF-α, dexamethasone 10^−6 M
[2] = system: MLO-Y4 osteocytic cells; settings: for percentage of cells stained with trypan blue (induction of apoptosis): MLO-Y4, 6 h, dexamethasone 10^−6 M, etoposide 50 μg/ml, TNF-α 1 nM; for inhibition of glucocorticoid-induced apoptosis: then dexamethasone 10^−6 M for 6 h; for effect on the prevention of MLO-Y4 cell apoptosis by sCT / effect on the anti-apoptotic effect of alendronate, IG-9402 and etidronate: inhibitor 30 min, 10^−6 M dexamethasone 6 h; for effect on the prevention of MLO-Y4 cell apoptosis by sCT: 5 ng/ml sCT 1 h; for effect on the anti-apoptotic effect of alendronate, IG-9402 and etidronate: 10^−7 M bisphosphonate 1 h
Experimental: The murine long bone-derived osteocytic cell line MLO-Y4 was provided by Dr. Lynda Bonewald (University of Texas Health Center at San Antonio, Tex.). Cells were cultured in phenol red-free αMEM supplemented with 5% FBS, 5% bovine calf serum, 100 U/ml penicillin and 100 μg/ml streptomycin. Cells were plated at 1-2×10^4 cells/cm^2 on collagen type I coated plates, as described previously (Kato, et al., 1997. J. Bone Miner. Res. 12:2014-2023). Murine calvaria cells were obtained from neonatal (3- to 6-day old) C57BL/6J mice by controlled digestion with collagenase, as previously described (Bellido, et al., 1997. Endocrinology 138:3666-3676). After isolation, cells were cultured in 10% FBS at 1-2×10^4 cells/cm^2 until 90-95% confluence. Subsequently, cells were harvested and frozen for later use. UMR-106-06 cells were cultured in phenol red-free MEM supplemented with 10% FBS, 1% non-essential aminoacids, 100 U/ml penicillin, and 100 μg/ml streptomycin (Sakagami, et al., Manolagas. 1993. J. Bone Miner. Res. 8:811-816).
Nonadherent cells were combined with adherent cells released from the culture dish using trypsin-EDTA, resuspended in medium containing serum, and collected by centrifugation. […] At least 100 cells per condition were counted.
(§1) MLO-Y4 osteocytic cells and calvaria osteoblastic cells were treated for 1 hour in the absence or presence of different BPs or sCT. Subsequently, dexamethasone, etoposide or TNF-α were added to obtain final concentrations of 10^−6 M, […], or 1 nM, respectively, and cells were incubated for additional 6 h. The effect of PD98059 (50 μM) or UO126 (1 μM) was evaluated by pretreating the cells with the inhibitors for 30 min before adding the BPs or sCT. In the experiment using the membrane permeable caspase inhibitor DEVD, cells were cultured for 1 hour with 50 nM DEVD-CHO and subsequently the pro-apoptotic agents were added to reach the final concentrations indicated above. […] At least 500 cells from fields selected by systematic random sampling were examined for each experimental condition. […] The TUNEL reaction was performed according to the manufacturer's instructions, using 0.15% CuSO4 for color enhancement. Negative controls were made by omitting the transferase from the reaction. Cells presenting brown nuclear staining were considered positive. More than 500 cells per condition were analyzed. Apoptosis of parental MLO-Y4 or calvaria cells was quantified by trypan blue staining (Jilka, et al., 1998. J. Bone Miner. Res. 13:793-802). Nonadherent cells were combined with adherent cells released from the culture dish using trypsin-EDTA, resuspended in medium containing serum, and collected by centrifugation. […] At least 100 cells per condition were counted.
MLO-Y4 cells were incubated for 1 h in vehicle or 50 nM DEVD-CHO. Subsequently, etoposide, TNF-α, or dexamethasone (Dex) were added at final concentrations of 50 μg/ml, 1 nM, or 10^−6 M, respectively, and cells were incubated for additional 6 h. Dead cells were enumerated by trypan blue uptake.
The percentage of dead cells was determined by trypan blue uptake, as in Methods and Materials. Bars represent the mean ±S.D. of three independent measurements.
Subsequently, etoposide, TNF-α, or dexarnethasone were added to reach final concentrations of 50 μg/ml, 1 nM, or 10^−6 M, respectively, and cells were cultured for 6 h, as in FIG. 1. The percentage of dead cells was determined by trypan blue uptake. Bars represent the mean ±S.D. of three independent measurements. Data were analyzed by two-way ANOVA.

[3] = system: osteoblastic cells and osteocytic cells; experiment: Anti-apoptotic effects of estrogens on osteoblastic and osteocytic cells in vitro; type: cell-based
[4] = system: MLO-Y4 cells stably transduced with GFP; experiment: Apoptosis by nuclear morphology of MLO-Y4 cells transduced with nuclear GFP; type: cell-based, murine; settings: absence of dexamethasone; 10^−7 M
Experimental: Supernatants containing retroviral particles were collected 24-48 h after transfection, and used immediately to infect cell cultures. […] Subsequently, cells were exposed to the supernatants containing the viral particles once more before being trypsinized and plated at low density.
Cells presenting brown nuclear staining were considered positive. More than 500 cells per condition were analyzed. […] At least 100 cells per condition were counted.

[5] = system: ERK1/2; experiment: ERK1/2 phosphorylation in MLO-Y4 cells by Western blot; type: cell-based, murine; settings: for effect on bisphosphonate-induced phosphorylation of ERKs: 50 μM PD98059 or 1 μM UO126 pretreatment, 10^−7 M bisphosphonate 2 min
Experimental: Monolayers were washed with cold 20 mM Tris-HCl (pH 7.5), 150 mM NaCl, 1 mM sodium orthovanadate and lysed in the lysis buffer mentioned above. Insoluble material was pelleted in a microcentrifuge at 14,000×rpm for 10 mn. […] Proteins (10 μg) were separated on 7.5% SDS-polyacrylamide gels and electrotransferred to a polyvinylidene difluoride membrane. Immunoblotting was performed using a mouse monoclonal antibody recognizing tyrosine phosphorylated ERK1/2, or a rabbit polyclonal antibody recognizing total ERK1/2, followed by incubation with either an antimouse or an antirabbit antibody conjugated with horseradish peroxidase. Blots were developed using Chemiluminescence according to the manufacturer's recommendations. Quantitation of the intensity of the bands in the autoradiograms was performed using a scanner (Microtek Lab., Redondo Beach, Calif.).

[6] = system: osteoclast; settings: cited from earlier work
[7] = system: osteocyte and osteoblast apoptosis in murine vertebral cancellous bone; experiment: Murine model of glucocorticoid excess: TUNEL in vertebral bone sections and spinal BMD by DEXA; type: in vivo, Male Swiss Webster mice; settings: prednisolone 2.1 mg/kg/day pellets, alendronate 0.75 mg/kg/d s.c., 56 days, mean ±SD
Source text: To adjust for the difference in the metabolic rate in mice compared to that in humans, the daily glucocorticoid dose was divided by the metabolic weight, i.e. the weight in kg to the 3/4 power (Borchard, et al., 1992. Drug dosage in laboratory animals: a handbook. CRC Press, Inc., Boca Raton, Fla. 514 pp.; Kleiber, M. 1961. The fire of life: an introduction to animal energetics. New York). […] One control group received saline injections with placebo pellet implantation while another group received saline injections plus prednisolone pellets. Dual-energy X-ray absorptiometry (DEXA) was used to determine spinal bone mineral density (spinal BMD) at the end of the 56-day experiment, as previously described (Weinstein et al., 1998. J. Clin. Invest. 102:274-282).
Sections of vertebral bone (L1 to L5) were mounted on silane-coated glass slides (Scientific Device Lab, Inc., Des Plains, Ill.), deplasticized and incubated in 10 mM citrate buffer, pH 7.6, in a microwave oven at 98° C. for 5 minutes (Jilka, et al., 1998. J. Bone Miner. Res. 13:793-802). Slides were then incubated with 0.5% pepsin for 30 minutes at 37° C. Apoptotic cells were detected by the TUNEL reaction as described above using 0.15% CuSO4 for color enhancement of the diaminobenzidine in sections counterstained with 1% methyl green. The TUNEL reaction is noted within cell nuclei and the cells whose nuclei were clearly brown from the streptavidin-horse radish peroxidase conjugate instead of blue-green from the methyl green were interpreted as positive. Plastic-embledded sections of weaned rat mammary tissue were used as a positive control. Negative controls were made by omitting the transferase from the TUNEL reaction. Morphological changes characteristic of apoptosis were carefully examined to minimize ambiguity regarding the interpretation of results. […] Osteocytes were identified inside lacunae in mineralized bone (FIG. 11A). Osteoblasts were identified as cuboidal cells lining the osteoid-covered trabecular perimeter (FIG. 11B).

[8] = system: osteocytic MLO-Y4 cells; experiment: TUNEL reaction in MLO-Y4 cells; type: cell-based, murine; settings: 10^−7 M alendronate 1 h and/or 10^−6 M dexamethasone 6 h
Experimental: as §1

In the case of `COc1cc([C@@H]2c3cc4c(cc3[C@@H](O[C@@H]3O[C@@H]5CO[C@@H](C)O[C@H]5[C@H](O)[C@H]3O)[C@H]3COC(=O)[C@H]23)OCO4)cc(OC)c1O` [etoposide], the “induction of apoptosis of osteoblastic cells” value [1] is reported as “induced apoptosis” and the “percentage of cells stained with trypan blue (induction of apoptosis)” value [2] is reported as “A similar effect was obtained”.

For `C[C@]12CC[C@@H]3c4ccc(O)cc4CC[C@H]3[C@@H]1CC[C@@H]2O` [17β-estradiol], the “anti-apoptotic effects on osteoblastic cells in vitro and osteocytic cells” value [3] was “potent anti-apoptotic effects”.

In the case of `NCCC(O)(P(=O)(O)O)P(=O)(O)O` [pamidronate], the “proportion of cells exhibiting chromatin condensation and/or nuclear fragmentation versus untreated” value [4] is reported as “no significant differences” and the “inhibition of glucocorticoid-induced apoptosis” value ([2]; 1 h pretreatment) is reported as “Comparable responses”.

In the case of `N#CC(=C(/N)Sc1ccccc1N)/C(C#N)=C(\N)Sc1ccccc1N` [U0126], the “effect on bisphosphonate-induced phosphorylation of ERKs” value [5] is reported as “abolished”, the “effect on the prevention of MLO-Y4 cell apoptosis by sCT” value [2] is reported as “abolished” and the “effect on the anti-apoptotic effect of alendronate, IG-9402 and etidronate” value [2] is reported as “abrogated the anti-apoptotic effect”.

For “Asp-Glu-Val-Asp-aldehide (DEVD-aldehyde) [DEVD-CHO]”, the “prevention of the increase in cell membrane permeability detected by trypan blue” value ([2]; 50 nM DEVD-CHO 1 h before pro-apoptotic agents) was “prevented”.

In the case of `CN(C)CCC(O)(P(=O)(O)O)P(=O)(O)O` [olpadronate], the “proportion of cells exhibiting chromatin condensation and/or nuclear fragmentation versus untreated” value [4] is given as “no significant differences”, the “antiresorptive activity / effect on osteoclast” value (shortened to “antiresorptive activity / effect”) [6] is given as “effective inhibitor of the osteoclast and of bone resorption” and the “inhibition of glucocorticoid-induced apoptosis” value ([2]; 1 h pretreatment) is given as “Comparable responses”.

For `COc1cccc(-c2cc(=O)c3ccccc3o2)c1N` [PD98059], the “effect on bisphosphonate-induced phosphorylation of ERKs” value [5] was “abolished”, the “effect on the prevention of MLO-Y4 cell apoptosis by sCT” value [2] was “abolished” and the “effect on the anti-apoptotic effect of alendronate, IG-9402 and etidronate” value [2] was “abrogated the anti-apoptotic effect”.

For `C[C@]12CC[C@@H]3c4ccc(O)cc4C[C@@H](CCCCCCCCC[S+]([O-])CCCC(F)(F)C(F)(F)F)[C@H]3[C@@H]1CC[C@@H]2O` (some centres unmarked) [ICI 182780], the “effect on the anti-apoptotic effects of the estrogen compounds” value [3] was “diminished”.

For `C[C@]12CC[C@@H]3c4ccc(O)cc4CC[C@H]3[C@@H]1CC[C@H]2O` [17α-estradiol], the “anti-apoptotic effects on osteoblastic cells in vitro and osteocytic cells” value [3] was “potent anti-apoptotic effects”.

In the case of `C[C@]12C=CC(=O)C=C1CC[C@@H]1[C@@H]2[C@@H](O)C[C@@]2(C)[C@H]1CC[C@]2(O)C(=O)CO` [prednisolone], the “Spinal BMD (% change)” value ([7]; DEXA) is reported as −12.48 ± 3.77 % change, the “Apoptotic osteoblasts (%)” value ([7]; vertebral cancellous bone) is reported as 19.79 ± 5.17 % and the “Apoptotic osteocytes (%)” value ([7]; vertebral cancellous bone) is reported as 2.37 ± 0.87%.

For `CN(C)CCC(N)(P(=O)(O)O)P(=O)(O)O` [IG-9402, 1-amino-3-(N,N-dimethylamino)-propyliden-1,1-bisphosphonic acid], the “proportion of cells exhibiting chromatin condensation and/or nuclear fragmentation versus untreated” value [4] is listed as “no significant differences”, the “antiresorptive activity / effect” value [6] is listed as “lacks anti-resorptive activity” and the “potency ratio to affect the osteoclast, relative to pamidronate” value [6] is listed as “⅙”. For the same molecule, the “antiresorptive activity / effect” value ([6]; listed as IG9204) was “do not block osteoclast activity at all”, the “antiresorptive activity / effect” value ([6]; listed as IG9402) was “devoid of any antiresorptive activity” and the “inhibition of apoptosis of osteoblastic cells induced by dexamethasone, TNF-α and etoposide” value ([1]; 10^−7 M, 1 h pretreatment) was “inhibited apoptosis”. For the same molecule, the “earliest time at which increased ERK phosphorylation was observed” value ([5]; 10^−7 M) was 0.5 min, the “phosphorylation of ERK 1 and 2” value ([5]; 10^−7 M) was “rapid and transient increase” and the “prevention of apoptosis induced by etoposide or TNF-α” value ([2]; 10^−7 M, 1 h pretreatment, 6 h) was “prevented apoptosis”. For the same molecule, the “cell viability in the absence of pro-apoptotic stimuli” value ([2]; 10^−10 to 10^−3 M) was “did not affect cell viability” and the “inhibitory effect on glucocorticoid-induced apoptosis at high concentrations” value ([2]; concentrations higher than 10^−6 M) was “persisted at high concentrations”.

For `C[C@@]12CCC[C@H]1[C@@H]1CCc3cc(O)ccc3[C@H]1CC2` [estratriene-3-ol], the “anti-apoptotic effects on osteoblastic cells in vitro and osteocytic cells” value [3] was “potent anti-apoptotic effects”.

With `C[C@@H]1C[C@H]2[C@@H]3CCC4=CC(=O)C=C[C@]4(C)[C@@]3(F)[C@@H](O)C[C@]2(C)[C@@]1(O)C(=O)CO` [dexamethasone] the “concentrations giving pro-apoptotic effects” value ([2]; MLO-Y4 cells) was 10^−7-10^−5 M, the “% of TUNEL positive cells” value [8] was 11.87* % and the “Number of TUNEL positive cells” value [8] was 66. The “number of TUNEL negative cells” value [8] was 490.

B1: TNF-α: Recombinant murine TNF-α, an activator of death receptors (protein, UniProt P06804 80-235, looked up)
Tumor necrosis factor, …: LRSSSQNSSDKPVAHVVANHQVEEQLEWLSQRANALLANGMDLKDNQLVVPADGLYLVYSQVLFKGQGCPDYVLLTHTVSRFAISYQEKVNLLSAVKSPCPKDTPEGAELKPWYEPIYLGGVFQLEKGDQLSAEVNLPKYLDFAESGQVYFGVIAL
modifications: Tumor necrosis factor, soluble form
With B1 the “induction of apoptosis of osteoblastic cells” value [1] was “induced apoptosis” and the “percentage of cells stained with trypan blue (induction of apoptosis)” value [2] was “A similar effect was obtained”.
